In PubChem BioAssay (NCI) one finds GI50 and TGI data, which are given here for seven molecules.

Some test systems named below: COLO 205 colon; UACC-62 melanoma; OVCAR-3 ovarian; SF-268 CNS; MOLT-4 leukemia; HT29 colon; MALME-3M melanoma; HCT-15 colon; HCT-116 colon; K-562 leukemia.
Common to all, as to test: inhibition of tumour cell growth, NCI panel, 48 h

“And” between values parts separate entries of the source, which are not always exact repeats. Equal values may be shown once.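 96-well plates; 48 h exposure; 5 concentrations. Endpoints by linear interpolation between flanking doses. Not reached: highest tested concentration assigned. GI50: concentration for 50% inhibition of growth. TGI marks complete inhibition of growth.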 Where only a bound is given, the exact number is not on record here.

As for `O=C(Nc1cccc(Cl)c1)c1cc2ccccc2cc1O`, the GI50 is 19.1 µM and 13.6 µM with COLO 205 colon; 1.55 µM and 0.657 µM in the assay on UACC-62 melanoma; 1.43 µM in the assay with OVCAR-3 ovarian; 2.58 µM and 2.57 µM with SF-268 CNS; 4.07 µM and 4.04 µM in the assay with MOLT-4 leukemia; 45.8 µM and 29.1 µM with HT29 colon. For the same molecule, the GI50 in the assay on MALME-3M melanoma is 0.71 µM; in the assay on HCT-15 colon, 2.38 µM and 2.36 µM; with HCT-116 colon, 1.68 µM and 0.828 µM; in the assay on K-562 leukemia, 1.38 µM and 0.888 µM. Also, the TGI in the assay with COLO 205 colon is > 100 µM and 79 µM; with UACC-62 melanoma, above 100 µM; with OVCAR-3 ovarian it was above 100 µM; in the assay on SF-268 CNS, above 100 µM; in the assay on MOLT-4 leukemia, above 100 µM; in the assay on HT29 colon, above 100 µM. For the same molecule, the TGI is 21.9 µM in the assay on MALME-3M melanoma; above 100 µM in the assay with HCT-15 colon; > 100 µM and 21.1 µM in the assay on HCT-116 colon; above 100 µM in the assay with K-562 leukemia.

For the molecule `CCN(CC)CCNCC(=O)Oc1ccc(/C=C/C(=O)CC(=O)/C=C/c2ccc(OC(=O)CNCCN(CC)CC)c(OC)c2)cc1OC`, the GI50 in the assay on COLO 205 colon was 5.06 µM; in the assay on UACC-62 melanoma, 2.73 µM; in the assay on OVCAR-3 ovarian, 4.11 µM; with SF-268 CNS, 3.68 µM; in the assay with MOLT-4 leukemia, 5.14 µM; in the assay on HT29 colon, 2.36 µM. Moreover, the GI50 was 2.57 µM with MALME-3M melanoma, 3.68 µM in the assay on HCT-15 colon, 2.81 µM in the assay on HCT-116 colon and 28.7 µM with K-562 leukemia. Also, the TGI in the assay on COLO 205 colon was 22.8 µM; in the assay on UACC-62 melanoma, 7.8 µM; in the assay with OVCAR-3 ovarian, above 100 µM; in the assay on SF-268 CNS, above 100 µM; in the assay on MOLT-4 leukemia it was above 100 µM; in the assay with HT29 colon, 6.02 µM. Further, the TGI is 7.65 µM in the assay on MALME-3M melanoma, 15.3 µM with HCT-15 colon, 12.3 µM in the assay on HCT-116 colon and above 100 µM in the assay with K-562 leukemia.

Regarding `NC1CCCC[C@H]1N.N[C@@H]1CCCC[C@@H]1N.O=C(P(=O)([O-])[O-])P(=O)([O-])[O-].[Pt+4].[Pt+4]`, the GI50 in the assay with COLO 205 colon is above 100 µM; in the assay on UACC-62 melanoma, above 100 µM; in the assay on OVCAR-3 ovarian, above 100 µM; with SF-268 CNS, above 100 µM; in the assay on MOLT-4 leukemia, 16 µM; in the assay on HT29 colon, 70.9 µM. The GI50 is above 100 µM in the assay with MALME-3M melanoma, 63.8 µM in the assay on HCT-15 colon, 83.8 µM in the assay on HCT-116 colon and 78.2 µM in the assay with K-562 leukemia. The TGI in the assay with COLO 205 colon, in the assay with UACC-62 melanoma, with OVCAR-3 ovarian, in the assay with SF-268 CNS, in the assay on MOLT-4 leukemia and in the assay on HT29 colon was above 100 µM in each case. For the same molecule, the TGI in the assay on MALME-3M melanoma, with HCT-15 colon, with HCT-116 colon and in the assay with K-562 leukemia was above 100 µM each time.

Consider `O=C(CN(C1CCCCC1)C1CCCCC1)Nc1ccc(S(=O)(=O)c2ccc(NC(=O)CN(C3CCCCC3)C3CCCCC3)cc2)cc1`, for which the GI50 with COLO 205 colon was 0.28 µM; in the assay on UACC-62 melanoma it was 0.595 µM; in the assay with OVCAR-3 ovarian it was 0.279 µM; in the assay with SF-268 CNS, 0.337 µM; with MOLT-4 leukemia, 0.293 µM; in the assay on HT29 colon it was 0.39 µM. Also, the GI50 is 0.334 µM in the assay on MALME-3M melanoma, 0.181 µM in the assay with HCT-15 colon, 0.158 µM in the assay on HCT-116 colon and 0.277 µM in the assay with K-562 leukemia. Besides, the TGI was 0.841 µM in the assay with COLO 205 colon; 2.05 µM in the assay with UACC-62 melanoma; 1.02 µM in the assay with OVCAR-3 ovarian; 1.6 µM in the assay with SF-268 CNS; 2.7 µM with MOLT-4 leukemia; 1.44 µM with HT29 colon. For the same molecule, the TGI in the assay on MALME-3M melanoma was 1.3 µM; in the assay with HCT-15 colon, 0.568 µM; in the assay on HCT-116 colon, 0.396 µM; in the assay on K-562 leukemia it was 1.38 µM.

With `CC(=O)OCC1OC([S-])C(OC(C)=O)C(OC(C)=O)C1OC(C)=O.CC[PH+](CC)CC.CC[PH+](CC)CC.[Au].[Au]` (stereo not given), the GI50 in the assay on COLO 205 colon is 0.198 µM; in the assay on UACC-62 melanoma, 0.119 µM; in the assay with OVCAR-3 ovarian, 0.376 µM; with SF-268 CNS, 0.207 µM; with MOLT-4 leukemia, 0.163 µM; in the assay with HT29 colon, 0.319 µM. The GI50 is 0.137 µM in the assay on MALME-3M melanoma, 0.165 µM in the assay on HCT-15 colon, 0.397 µM in the assay on HCT-116 colon and 0.0834 µM in the assay with K-562 leukemia. Further, the TGI came to 0.391 µM in the assay with COLO 205 colon; 0.307 µM in the assay with UACC-62 melanoma; 1.19 µM in the assay on OVCAR-3 ovarian; 0.669 µM with SF-268 CNS; 0.52 µM in the assay with MOLT-4 leukemia; 0.989 µM in the assay with HT29 colon. In addition, the TGI turned out to be 0.32 µM with MALME-3M melanoma, 0.452 µM with HCT-15 colon, 1.7 µM in the assay on HCT-116 colon and 0.337 µM with K-562 leukemia.

Turning to `O=C(Nc1cccc(Cl)c1Cl)c1cccc(NC2=C(Cl)C(=O)N(Cc3ccccc3)C2=O)c1`, the GI50 in the assay with COLO 205 colon was above 100 µM; in the assay with UACC-62 melanoma, 22.2 µM; in the assay with OVCAR-3 ovarian it was 16.5 µM; in the assay with SF-268 CNS, 27.7 µM; in the assay on MOLT-4 leukemia, 3.11 µM; in the assay with HT29 colon, 79.9 µM. In addition, the GI50 in the assay on MALME-3M melanoma is above 100 µM; in the assay on HCT-15 colon, 52.1 µM; in the assay on HCT-116 colon it was 22.1 µM; in the assay with K-562 leukemia, 5.32 µM. Besides, the TGI in the assay on COLO 205 colon was above 100 µM; in the assay with UACC-62 melanoma, above 100 µM; in the assay on OVCAR-3 ovarian, 77.4 µM; in the assay on SF-268 CNS, above 100 µM; with MOLT-4 leukemia it was 9.07 µM; in the assay on HT29 colon it was above 100 µM. Besides, the TGI in the assay with MALME-3M melanoma was above 100 µM; with HCT-15 colon it was above 100 µM; in the assay on HCT-116 colon it was above 100 µM; with K-562 leukemia, 37.5 µM.

Take `Cc1c[n+](Cc2ccc3ccccc3c2)cn1Cc1ccc2ccccc2c1`: the GI50 in the assay on COLO 205 colon is 1.12 µM; in the assay with UACC-62 melanoma, 1.41 µM; with OVCAR-3 ovarian, 1.04 µM; with SF-268 CNS it was 1.36 µM; in the assay with MOLT-4 leukemia, 1.7 µM; in the assay with HT29 colon, 1.07 µM. In addition, the GI50 in the assay with MALME-3M melanoma was 1.29 µM; in the assay with HCT-15 colon, 10.3 µM; in the assay with HCT-116 colon it was 1.39 µM; in the assay on K-562 leukemia, 1.38 µM. The TGI is 2.62 µM with COLO 205 colon; 3.12 µM in the assay on UACC-62 melanoma; 2.28 µM in the assay with OVCAR-3 ovarian; 2.88 µM in the assay on SF-268 CNS; 4.06 µM with MOLT-4 leukemia; 2.53 µM with HT29 colon. The TGI stood at 3.02 µM with MALME-3M melanoma, 24.2 µM in the assay with HCT-15 colon, 2.7 µM with HCT-116 colon and 4.59 µM in the assay on K-562 leukemia.
